{"source": "patent US20130029928A1", "about": "(priority 2010, published 2013)", "key": {"[1]": {"test_system": "TOV-21G", "assay": "ATP depletion cytotoxicity assay 48 hr", "assay_type": "cell-based, human", "method": "Assay replicates were independent in time and up to 4 replicates were performed per cell line.\nCells were plated at the optimal plating density for that cell line in 96-well plates and allowed to attach overnight. The next day, the medium was removed and replaced with fresh medium containing the dose ranges of test items. […] There were 3 replicates for each test item concentration.\n(§1) Following exposure to Test Items, the CellTitre-Glo Luminescent Cell Viability Assay to measure ATP content was performed according to the manufacturer's detailed instructions (Promega Corporation, Technical Bulletin No. 288, and Cell notes, Issue 10, 2004).\nCells were plated at the optimal plating density for that cell line in 96-well plates and allowed to attach overnight. The next day, cells were pre-treated with the inhibitors UO126 or LY294002 (see Tables 18 & 20) for 2 hrs, the medium was removed and replaced with fresh medium containing the appropriate dose of the test item. […] Cells were exposed to these compounds in Roswell Park Memorial Institute (RPMI) medium containing 10% Foetal Calf Serum (FCS) and 2 mM Glutamine at 37° C. and 5% CO2 for 48 hours. There were 3 replicates for each test item concentration.\n(§2) Following exposure to Test Items, the CellTitre-Glo Luminescent Cell Viability Assay to measure ATP content will be performed according to the manufacturer's detailed instructions (Promega Corporation, Technical Bulletin No. 288, and Cell notes, Issue 10, 2004)."}, "[2]": {"test_system": "XBP1 mRNA", "assay": "RT-PCR analysis of XBP1 mRNA splicing in Panc-1 and HepG2 cells", "assay_type": "cell-based, human", "conditions": "Panc-1 500-740 μM, HepG2 300 μM; 1-4 days", "experimental": "XBP1-u: unspliced form of XBPI; XBPI-s: spliced form of XBP1.\n1. Control; 2. 500 μM/1 day; 3. 500 μM/2 days; […]; 5. 500 μM/4 days; […]; 7. 740 μM/2 days.\nControl/1 day; 2. Control/2 days; 3. Control/4 days; 4. Tunicamycin for 24 h; 5. Tunicamycin for 6 h; 6. 300 μM/1 day; 7. 300 μM/2 days; 8. 300 μM/3 days."}, "[3]": {"target": "CYP2C9 (Homo sapiens, UniProt P11712)", "sequence (P11712 whole entry)": "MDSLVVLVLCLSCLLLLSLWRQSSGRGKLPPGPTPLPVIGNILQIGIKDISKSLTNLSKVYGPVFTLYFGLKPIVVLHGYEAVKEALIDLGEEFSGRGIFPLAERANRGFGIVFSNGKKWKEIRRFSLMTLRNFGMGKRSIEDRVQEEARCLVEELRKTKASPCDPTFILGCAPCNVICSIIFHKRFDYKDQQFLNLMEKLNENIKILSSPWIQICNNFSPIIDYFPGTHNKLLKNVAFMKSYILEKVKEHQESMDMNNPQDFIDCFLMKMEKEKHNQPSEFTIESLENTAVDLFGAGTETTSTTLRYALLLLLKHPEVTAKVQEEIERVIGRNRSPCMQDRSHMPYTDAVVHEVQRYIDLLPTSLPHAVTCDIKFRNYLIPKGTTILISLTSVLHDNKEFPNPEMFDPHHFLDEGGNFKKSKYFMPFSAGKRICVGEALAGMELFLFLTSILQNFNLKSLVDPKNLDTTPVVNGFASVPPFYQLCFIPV", "assay": "Cytochrome P450 isozyme inhibition", "assay_type": "in vitro ADME", "conditions": "under the conditions used (unpublished data); read-out: IC50 towards CYP2C9", "description": "There is no evidence that APFO is metabolised in mammals once dissociated to form perfluorooctanoate."}, "[4]": {"test_system": "patients with advanced cancer", "assay": "Phase I study CXR1002-001: plasma HDL-C and LDL-C", "assay_type": "in vivo, human", "conditions": "6 weeks of treatment, % baseline", "description": "Individual patient raw data was captured and represented in graphs as % change from baseline (screening). […] Data represents either mean±SEM values or median, range+individual data points."}, "[5]": {"test_system": "panel of tumour cell lines", "assay": "ATP cytotoxicity assay on the panel of tumour cell lines (CXR1002 alone; test items alone vs combined with CXR1002)", "conditions": "Homo sapiens, read-out: cytotoxicity IC50 to tumour cells (lowest of range)", "method": "(§3) The SRB assay was performed according to the method specified by the NIC/NIH. […] Assay replicates were independent in time and up to 4 replicates were performed per cell line.\nCells were plated at the optimal plating density for that cell line in 96-well plates and allowed to attach overnight. The next day, the medium was removed and replaced with fresh medium containing the dose ranges of test items. The cells were exposed to 5-FU, cisplatin, docetaxel, doxorubicin, geldanamycin, gemcitabine, rapamycin or roscovitine in Roswell Park Memorial Institute (RPMI) medium containing 10% Foetal Calf Serum (FCS) and 2 mM Glutamine at 37° C. and 5% CO2 for 48 hours. […] There were 3 replicates for each test item concentration.\nas §1"}, "[6]": {"test_system": "A549", "assay": "SRB cytotoxicity assay 48 hr", "assay_type": "cell-based, human", "conditions": "read-out: IC50 Values After 48 Hrs Exposure", "method": "as §3"}, "[7]": {"assay": "Stability / shelf life", "assay_type": "physicochemical"}, "[8]": {"test_system": "OUMS-27", "assay": "ATP depletion cytotoxicity assay 48 hr", "assay_type": "cell-based, human", "method": "as §1\nCells were plated at the optimal plating density for that cell line in 96-well plates and allowed to attach overnight. […] Cells were exposed to these compounds in Roswell Park Memorial Institute (RPMI) medium containing 10% Foetal Calf Serum (FCS) and 2 mM Glutamine at 37° C. and 5% CO2 for 48 hours. There were 3 replicates for each test item concentration.\nas §2"}, "[9]": {"test_system": "Hep3B", "assay": "SRB cytotoxicity assay 48 hr", "assay_type": "cell-based, human", "conditions": "read-out: IC50 Values After 48 Hrs Exposure", "method": "as §3"}, "[10]": {"conditions": "ATP depletion, 48 hrs, read-out: IC50 1-4 (independent replicates)"}}, "note": "Several values for one entry are separate records, joined by “and”; a condition that tells them apart may be missing. Identical values can stand only once. Like-named read-outs stand apart in the source and are kept apart here.", "data": [{"compound": "O=C(O)C(F)(F)C(F)(F)C(F)(F)C(F)(F)C(F)(F)C(F)(F)C(F)(F)F", "note": "[CXR1002]", "values": [{"measurement": "IC50", "setting": "[1]; [10]", "result": "600 µM and 700 µM"}, {"measurement": "IC50", "setting": "[1]; Homo sapiens, TOV21G, 48 h, ATP depletion, 48 hrs, read-out: IC50 1-4 (independent replicates)", "result": 610, "unit": "µM"}, {"measurement": "IC50", "setting": "[1]; Homo sapiens, TOV21G, 48 h, ATP depletion, 48 hrs, read-out: IC50 Mean", "result": 637, "unit": "µM"}, {"measurement": "IC50", "setting": "[1]; Homo sapiens, TOV21G, 48 h, Example 7, 48 hour, CXR1002 0-1 mM, U0126 fixed 10 μM where combined, read-out: IC50", "result": 615, "unit": "µM"}, {"measurement": "XBP-1 mRNA splicing", "setting": "[2]", "result": "varies from predominately unspliced to spliced"}, {"measurement": "IC50", "setting": "[3]", "result": 0.76, "unit": "µM"}, {"measurement": "effect on plasma HDL-C", "setting": "[4]", "result": "remains unchanged"}, {"measurement": "effect on plasma LDL-C", "setting": "[4]", "result": "lowering effect"}, {"measurement": "IC50", "setting": "[5]", "result": "≥ 273", "unit": "µM"}, {"measurement": "IC50", "setting": "[6]", "result": "230 ± 21.8", "unit": "µM"}, {"measurement": "stability", "setting": "[7]", "result": "extremely stable"}, {"measurement": "IC50", "setting": "[8]; [10]", "result": 800, "unit": "µM"}, {"measurement": "IC50", "setting": "[8]; Homo sapiens, 48 h, ATP depletion, 48 hrs, read-out: IC50 1-4 (independent replicates)", "result": 1000, "unit": "µM"}, {"measurement": "IC50", "setting": "[8]; Homo sapiens, 48 h, ATP depletion, 48 hrs, read-out: IC50 Mean", "result": 900, "unit": "µM"}, {"measurement": "IC50", "setting": "[8]; Homo sapiens, 48 h, Example 7, 48 hour, CXR1002 0-1 mM, U0126 fixed 10 μM where combined, read-out: IC50", "result": 821, "unit": "µM"}, {"measurement": "IC50", "setting": "[9]", "result": "215 ± 28.3", "unit": "µM"}]}]}
